In ChEMBL document CHEMBL5126586, “Chemical analysis of amyloid β aggregation inhibitors derived from Geranium thunbergii” (Bioorg Med Chem, 2022):

Assays:
[1] = target: T1, Amyloid-beta precursor protein (Homo sapiens, UniProt P05067); experiment: Inhibition of amyloid beta 1 to 42 aggregation (unknown origin) incubated for 24 hrs by ThT fluorescence assay relative to control; conditions: concentration not given here
[2] = target: T1, Amyloid-beta precursor protein; experiment: Inhibition of amyloid beta 1 to 42 aggregation (unknown origin) incubated for 24 hrs by inverted fluorescence microscopic analysis relative to control; conditions: concentration not given here
[3] = target: T1, Amyloid-beta precursor protein; experiment: Inhibition of amyloid beta 1 to 42 aggregation (unknown origin) incubated for 24 hrs by inverted fluorescence microscopic analysis
[4] = target: T1, Amyloid-beta precursor protein; experiment: Inhibition of amyloid beta 1 to 42 aggregation (unknown origin) incubated for 24 hrs by ThT fluorescence assay

T1 sequence (P05067 whole entry): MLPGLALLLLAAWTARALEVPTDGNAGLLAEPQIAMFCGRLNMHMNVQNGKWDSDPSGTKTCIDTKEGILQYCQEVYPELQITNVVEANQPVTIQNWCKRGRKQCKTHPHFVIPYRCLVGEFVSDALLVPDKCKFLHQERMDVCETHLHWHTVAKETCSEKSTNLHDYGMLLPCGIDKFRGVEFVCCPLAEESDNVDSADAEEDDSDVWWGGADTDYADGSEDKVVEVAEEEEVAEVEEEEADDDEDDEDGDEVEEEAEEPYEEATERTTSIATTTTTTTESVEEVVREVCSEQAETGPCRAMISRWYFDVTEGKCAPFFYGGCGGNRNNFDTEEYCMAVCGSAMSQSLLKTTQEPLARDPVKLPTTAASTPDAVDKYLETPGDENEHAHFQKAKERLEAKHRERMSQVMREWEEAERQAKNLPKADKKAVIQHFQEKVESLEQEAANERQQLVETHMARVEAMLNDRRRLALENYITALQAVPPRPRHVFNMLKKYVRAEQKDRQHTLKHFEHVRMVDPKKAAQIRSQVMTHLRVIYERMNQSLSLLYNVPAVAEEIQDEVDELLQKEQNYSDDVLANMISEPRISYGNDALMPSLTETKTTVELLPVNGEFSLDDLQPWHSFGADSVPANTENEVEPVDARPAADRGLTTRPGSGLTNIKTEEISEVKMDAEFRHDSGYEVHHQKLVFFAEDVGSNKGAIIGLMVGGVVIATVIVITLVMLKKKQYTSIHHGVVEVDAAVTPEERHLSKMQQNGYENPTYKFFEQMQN

Row | SMILES | inhibition [1] [%] | inhibition [2] [%] | EC50 [3] [µM] | EC50 [4] [µM]
1 | O=C(O)c1cc(O)c(O)c(O)c1-c1c(C(=O)O)cc(O)c(O)c1O | < 0.01 | < 0.01 | 562 | 
2 | O=C(O[C@@H]1O[C@@H]2COC(=O)c3cc(O)c(O)c(O)c3-c3c(cc(O)c(O)c3O)C(=O)O[C@H]([C@H]1O)[C@@H]2O)c1cc(O)c(O)c(O)c1 [CORILAGIN] | 14 | 25 | 5.04 | 14
3 | O=c1oc2c(O)c(O)cc3c(=O)oc4c(O)c(O)cc1c4c23 [ELLAGIC ACID] | < 0.01 | 0.15 | 563 | 
4 | O=C(O)c1cc(O)c(O)c(O)c1 [GALLIC ACID] |  | 92 | 18.8 | 9.99
5 | O=C1O[C@H]2[C@@H]3OC(=O)c4cc(O)c(O)c(O)c4-c4c(cc(O)c(O)c4O)C(=O)OC[C@H]2O[C@@H](OC(=O)c2cc(O)c(O)c(O)c2)[C@@H]3OC(=O)c2cc(O)c(O)c3c2[C@@H]2C1=CC(=O)[C@](O)(O3)C2(O)O [GERANIIN] |  |  | 7.03 | 10.5
